“Also recorded” adds a separate entry of the source.
Tests used:
Type in all cases: cell-based
[1] = system: ENTPD5; experiment: qPCR, ENTPD5 expression in MCF7; conditions: vs untreated cells
Protocol: (§1) Total RNA was extracted using Trizol reagent (Invitrogen), according to the manufacturer’s protocol. The quality of extracted RNA was verified by the spectrophotometric readings at 260 and 280 nm (Nanodrop 1000-ThermoFisher), and the first strand of cDNA was synthesized from 1 µg of total RNA via reverse transcription using GoScript™ Reverse Transcription Mix (Promega, Madison, WI, EUA). qPCR analysis was performed using 5.0 μL of Power SYBR Green PCR Master Mix (Applied Biosystems, Carlsbad, CA, USA) and run on a StepOnePlus Systems (Applied Biosystems, Carlsbad, CA, USA) device with the following cycling parameters: 40 cycles of 95 °C for 10 s and 60 °C for 30 s. The comparative Cq was used to find the relative expression of CDH1 (E-caderina), ENTPD1 (ectonucleoside triphosphate diphosphohydrolase 1), ENTPD2 (ectonucleoside triphosphate diphosphohydrolase 2), ENTPD3 (ectonucleoside triphosphate diphosphohydrolase 3), ENTPD5 ([…]) and KRT10 (keratin 10) genes, after relative standard curve optimization. β-2-microglobulin (β2M) was used as a reference gene. The primer sequences are described in Table 3.

[2] = system: MCF7; experiment: Wound-healing migration assay
Protocol: Wound-healing analysis was applied to test cell migration ability. MCF7 cells were seeded in a 6-well plate at a density of 1 × 10^6 cells/well and, after confluence, a “wound” in the monolayer was introduced by a sterilized 200 μL pipet tip. Cells were washed with PBS and treated with compound 3 (1.125, 2.25 and 4.5 µM) for 24 or 48 h in a serum-free medium. Cells were photographed at 0 h, 24 or 48 h under a light microscope (Evos®, ThermoFisher Scientific, Waltham, MA, USA) at 10× objective using the same randomly chosen fields. The cell-free area was measured by ImageJ v. 1.54 g software and migration in the control well was considered to be 100%.

[3] = system: MCF7; experiment: Clonogenic (colony formation) assay; conditions: MCF7, 9.00 µM (highest concentration), 48 h
Protocol: MCF7 cells were seeded at a density of 500 cells per well in 6-well culture. […] The medium was removed and, after 12 days, cells were washed 3 times with 1 × Phosphate-buffered saline (PBS), fixed with formaldehyde (4% v/v) and stained with crystal violet solution (0.5% v/v). Plates were scanned using L-Pix (Loccus Biotecnologia, Cotia, SP, Brazil) to obtain the images, incubated with 300 µL of acetic acid 33% v/v, and 100 µL of this solution was transferred to 96-well plates to evaluate the absorbance at 570 nm in a microplate reader (Thermo Plate TP-Reader, ThermoFisher). The number of colonies per well was calculated in relation to the untreated cells (considered as 100% of colony formation).

[4] = system: tumor cells MCF7, MDA-MB-453 and MDA-MB-231; experiment: MTT cell viability, tumor cells (stated collectively); conditions: 48 h, MTT; tumor cells stated collectively
Protocol: (§2) Four different breast cells lines were used in this study: MCF-10A (non-tumorigenic), MCF7 (ER+ BC), MDA-MB453 (HER2+ BC) and MDA-MB231 (TNBC). All lineages were obtained from the American Type Culture Collection (ATCC; Manassas, VA, USA) and maintained at a temperature of 37 °C according to the supplier’s recommendations. Only MDA-MB231 cells were not kept in an atmosphere of 5% CO2. MCF-10A was grown in Dulbecco’s Modified Eagle’s Medium (DMEM F12, Gibco, ThermoFisher Scientific, Waltham, MA, USA) supplemented with 20 ng/mL epidermal growth factor (Gibco, ThermoFisher Scientific, Waltham, MA, USA), 0.5 μg/mL hydrocortisone (Sigma-Aldrich, Sigma-Aldrich, St. Louis, MO, USA) and 10 μg/mL insulin (Gibco, ThermoFisher Scientific, Waltham, MA, USA). MCF7 was cultivated in Roswell Park Memorial Institute Medium (RPMI-1640, Gibco, ThermoFisher Scientific, Waltham, MA, USA), MDA-MB453 in IMDM and MDA-MB231 in Leibovitz’s medium (L-15, Gibco, ThermoFisher Scientific, Waltham, MA, USA). All media were supplemented with 10% fetal bovine serum (FBS, Gibco, ThermoFisher Scientific, Waltham, MA, USA) and 50 µg/mL of gentamicin (Cultilab, Campinas, SP, Brazil). The cells were confirmed to be free of mycoplasma and passaged using a 0.25% trypsin-EDTA solution when confluency reached 80–90%.
(§3) Cell viability was determined by spectrophotometric quantification of MTT (3-[4,5-dimethyl-thiazol-2-yl]-2,5-diphenyltetrazolium bromide—Invitrogen. Waltham, MA, USA) reduction to formazan crystals. Cells were seeded at the density of 1 × 10^4 cells/well (MCF-10A, MDA-MB453), 1.5 × 10^4 cells/well (MDA-MB231) and 3 × 10^3 cells/well (MCF7) in 96-well culture dishes and incubated with different concentrations of the compounds (1.25, 2.5, 5, 10, 20, 40, 80 and 160 µM) for 48 h. The medium was than replaced by MTT solution (0.5 mg/mL) and plates were kept at 37 °C for 4 h. After the aspiration of the media, the formazan crystals were diluted with 100 μL of dimethyl-sulfoxide (DMSO)/well and the absorbance at 570 nm was measured using a spectrophotometer (Thermo Plate TP-Reader, Waltham, MA, USA). Cytotoxicity was calculated using the following formula: Cytotoxicity (%) = [absorbance of cells treated with the compounds/absorbance of cells treated with DMSO) × 100]. The IC50 was determined for each compound and was defined as the concentration required to inhibit 50% of cell growth, compared to the control sample (cells treated with DMSO 0.05%).
(§4) Data were presented as the mean ± standard deviation (SD) and analyzed using GraphPad Prism 9.0 software (GraphPad Software Inc., La Jolla, CA, USA). All data were assayed in triplicate. Statistical analysis was performed using one-way ANOVA, Tukey´s HSD post hoc test and Student’s t-test. The IC50 was calculated using non-linear regression and the selectivity index (SI) was calculated by the ratio between the IC50 values corresponding to the non-tumor cell lineage (MCF-10A) and the IC50 values corresponding to the BC cell lines. Statistical significance was accepted at p values < 0.05.

[5] = system: ENTPD3; experiment: qPCR, ENTPD3 expression in MCF7; conditions: vs untreated cells
Protocol: as §1

[6] = system: ENTPD1; experiment: qPCR, ENTPD1 expression in MCF7; conditions: vs untreated cells
Protocol: as §1

[7] = system: MCF-10A; experiment: MTT cell viability, non-tumor cell line MCF-10A; conditions: Homo sapiens, MCF-10A, 48 h, 1.25–160 μM, read-out: IC50 MCF-10A
Protocol: as §2, §3, §4

With `O=C(c1ccc(-n2cnnn2)cc1)N1CCN(S(=O)(=O)c2ccc(Cl)cc2)CC1` [Compound 3, (4-(1H-tetrazol-1-yl)phenyl)(4-((4-chlorophenyl)sulfonyl)piperazin-1-yl)methanone] the “Fold Change ENTPD5 mRNA” value ([1]; MCF7, 1.125 µM) was 2.046, the “Fold Change ENTPD5 mRNA” value ([1]; MCF7, 2.25 µM) was 1.437 and the “Fold Change ENTPD5 mRNA” value ([1]; MCF7, 4.5 µM) was 1.306. For the same molecule, the “Migration of MCF7 cells” value ([2]; 1.13, 2.25 and 4.50 µM, 48 h) was “significantly inhibited”, the “Migration of MCF7 cells” value ([2]; 2.25 and 4.50 µM, 24 h) was “significantly inhibited” and the Colony formation [3] was “significantly reduced colony formation; also recorded: Colony formation was inhibited”. The IC50 [4] was under 50 µM, the “Fold Change ENTPD3 mRNA” value ([5]; MCF7, 1.125 µM) was 1.641 and the “Fold Change ENTPD3 mRNA” value ([5]; MCF7, 2.25 µM) was 1.074. The “Fold Change ENTPD3 mRNA” value ([5]; MCF7, 4.5 µM) was 1.229, the “Fold Change ENTPD1 mRNA” value ([6]; MCF7, 1.125 µM) was 1.102 and the “Fold Change ENTPD1 mRNA” value ([6]; MCF7, 2.25 µM) was 1.331. For the same molecule, the “Fold Change ENTPD1 mRNA” value ([6]; MCF7, 4.5 µM) was 1.006 and the IC50 [7] was over 160 µM.

From article PMC11433764, “A Novel Compound from the Phenylsulfonylpiperazine Class: Evaluation of In Vitro Activity on Luminal Breast Cancer Cells” (Molecules, 2024)
